Source: publication PMC11545510, “Goat Milk Protein-Derived ACE Inhibitory Peptide SLPQ Exerts Hypertension Alleviation Effects Partially by Regulating the Inflammatory Stress of Endothelial Cells” (Foods, 2024)
Where a SMILES comes first, the peptide text is derived from it.

How the values were obtained:
EA.hy926 cells = test: MTT cell viability; type: cell-based; details: 12 or 24 h; for viability of EA.hy926 cells: concentration lower than 200 μg/mL
Description: The cells were cultured in DMEM with 100 units/mL streptomycin–penicillin plus 2% FBS under an atmosphere of 5% CO2, 37 °C, and 100% humidity. The cells were seeded in 96-well plates at a density of 1 × 10^5 cells/well, and then treated with different concentrations of SLPQ (0, 12.5, 25, 50, 100, 200, 400, 800 μg/mL) or PYVRYL (0, 25, 50, 100, 200, 400, 800 μg/mL) for 12 or 24 h. After that, 0.05 mg/mL of MTT was added to each well and the plate was incubated for four hours at 37 °C. Finally, the culture media were replaced with 150 μL DMSO, and the OD value was detected at a wavelength of 570 nm (Infinity F200 microplate reader, Mainz, Germany).

eNOS = details: goat milk-derived ACE-inhibitory peptide; ref [39]; cited from earlier work
Description: Consequently, peptides SLPQ or PYVRYL were supplemented at concentrations ranging from 0 to 200 μg/mL in the following study. The bradykinin–NO signaling pathway can be activated by […] [44], and NO plays an important role in regulating blood pressure and the tension of vascular smooth muscle. Therefore, the content of NO in the ...

Compound	toxic effects on EA.hy926 cells (EA.hy926 cells; 400 μg/mL)	toxic effects on EA.hy926 cells (EA.hy926 cells; 800 μg/mL)	viability of EA.hy926 cells (EA.hy926 cells)	NO production and eNOS expression (eNOS)
CC(C)C[C@H](NC(=O)[C@H](Cc1ccc(O)cc1)NC(=O)[C@H](CCCNC(=N)N)NC(=O)[C@@H](NC(=O)[C@H](Cc1ccc(O)cc1)NC(=O)[C@@H]1CCCN1)C(C)C)C(=O)O [PYVRYL] (H-PYVRYL-OH)	obvious toxic effects	obvious toxic effects	not affected	
CC(C)C[C@H](NC(=O)[C@@H](N)CO)C(=O)N1CCC[C@H]1C(=O)N[C@@H](CCC(N)=O)C(=O)O [SLPQ] (H-SLPQ-OH)	obvious toxic effects	obvious toxic effects	not affected	
SQPK				elevate NO production and eNOS expression
